Reference: ChEMBL document CHEMBL1201862, “PubChem BioAssay data set” (2004)
Where a name gives a salt, the structure may show the parent alone.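 Step 1: Grow cells in 96-well plates. Step 2: Expose to compound for 48 hours at 5 concentrations. Step 3: Interpolate endpoints linearly; if unreached, use highest concentration. GI50: concentration for 50% inhibition of growth.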 Active and inactive are the calls of the source. No stated cut-off is given here; in the data, active = GI50 up to about 1.1 µM and inactive = higher.

Experiments:
Test in all cases: growth of human tumour cells (NCI), 48 h
RXF 631 = system: RXF 631
BT-549 = system: BT-549
HOP-18 = system: HOP-18
MDA-MB-435 = system: MDA-MB-435
T47D = system: T47D
MDA-MB-231 = system: MDA-MB-231
MDA-N = system: MDA-N
786-0 = system: 786-0
PC-3 = system: PC-3

| SMILES | GI50 (BT-549) | GI50 (HOP-18) | GI50 (MDA-MB-435) | GI50 (MDA-MB-231) | GI50 (MDA-N) | other results |
| --- | --- | --- | --- | --- | --- | --- |
| Nc1ccc2cc3ccc(N)cc3nc2c1 [PROFLAVINE SULFATE] | 3.19 µM (inactive) | 2.76 µM (inactive) | 1.48 µM (inactive) | 1.62 µM (inactive) | 1.21 µM (inactive) | GI50 (RXF 631): 1.12 µM (inactive); GI50 (T47D): 1.59 µM (inactive) |
| CC1OC(OC2C(OC(=O)[C@@H]3CC(C)(C)C[C@H]4C5=CC[C@@H]6[C@@]7(C)C[C@H](O)[C@H](OC8OC(CO)C(O)C(O)C8O)[C@@](C)(CO)[C@@H]7[C@H](O)C[C@@]6(C)[C@]5(C)CC[C@@]34C)OCC(O)C2O)C(O)C(O)C1O (stereo partly drawn) | > 7.5 µM (inactive) | – | > 7.5 µM (inactive) | > 7.5 µM (inactive) | > 7.5 µM (inactive) | GI50 (786-0): > 7.5 µM (inactive); GI50 (T47D): > 7.5 µM (inactive); GI50 (PC-3): > 7.5 µM (inactive) |
| C=CC(OCC)(OCC)OCC | – | > 100 µM (inactive) | – | – | – | GI50 (RXF 631): > 100 µM (inactive); GI50 (786-0): 23.5 µM (inactive) |
| CCOC(=O)CNC(=O)N(CC)C12CC3CC(CC(C3)C1)C2 | – | 179 µM (inactive) | – | – | – | – |
| O=C(O)CN1CCCC(Cc2c[nH]c3ccccc23)C1 (stereo not drawn) | > 100 µM (inactive) | – | > 100 µM (inactive) | > 100 µM (inactive) | > 100 µM (inactive) | GI50 (PC-3): > 100 µM (inactive) |
| NC(=O)Nc1cc(O)ccc1/N=N/c1ccc(S(=O)(=O)Nc2ccccn2)cc1 | – | > 100 µM (inactive) | – | – | – | – |
| O=C1c2cccc3cc4ccccc4c(c23)C(=O)N1CCNCCN1C(=O)c2cccc3cc4ccccc4c(c23)C1=O | – | 0.231 µM (active) | – | – | – | – |
| COC(=O)C1=CC[C@@H]2C(C(=O)O)=CO[C@@H](OC3OC(CO)C(O)C(O)C3O)[C@H]12 (stereo partly drawn) | – | 13.7 µM (inactive) | – | – | – | – |
| CCC1OC(=O)C(C)C(OC2CC(C)(O)C(O)C(C)O2)C(C)C(O)C(C)(O)CC(C)C(=O)C(C)C(O)C1C (stereo not drawn) | – | > 300 µM (inactive) | – | – | – | – |
| COc1cc(OC)c(SSCCCCS(=O)O)c(OC)c1 | – | 18 µM (inactive) | – | – | – | GI50 (RXF 631): > 10 µM (inactive); GI50 (786-0): 18.7 µM (inactive) |
| CSc1sc(=S)sc1SC | – | > 100 µM (inactive) | – | – | – | – |
| C=C1C(=O)OC2CC(C)C3C4OC4C(O)C3(C)C(O)C12 (stereo not drawn) | – | 24.4 µM (inactive) | – | – | – | – |
| COc1ccc(/C=C2\Oc3cc(OC(C)=O)ccc3C2=O)cc1 | > 100 µM (inactive) | – | > 100 µM (inactive) | > 100 µM (inactive) | 76.2 µM (inactive) | GI50 (786-0): > 100 µM (inactive); GI50 (T47D): > 100 µM (inactive); GI50 (PC-3): > 100 µM (inactive) |
| CC1CC2C3CC(F)C4=CC(=O)C=CC4(C)C3(F)C(O)CC2(C)C1(O)C(=O)COC(=O)C(C)(C)C (stereo not drawn) | – | – | – | – | – | GI50 (786-0): 68.1 µM (inactive) |
| O=C1C[C@H](c2ccccc2)C2(C(=O)c3ccccc3C2=O)[C@@H](c2ccccc2)C1 | 19.6 µM (inactive) | – | > 10 µM (inactive) | 20.7 µM (inactive) | 16.2 µM (inactive) | GI50 (T47D): 43.1 µM (inactive); GI50 (PC-3): 10.8 µM (inactive) |
| CCC/C=C/C=C\C(=O)O[C@@H]1[C@@H](C)[C@]2(O)[C@@H]3C=C(C)C(=O)[C@H]3CC(COC(C)=O)=C[C@H]2[C@@H]2C(C)(C)[C@]12OC(C)=O | – | 28 µM (inactive) | – | – | – | – |
| O=C(O)c1cccc2cccc(-c3c4ccc(=O)cc-4oc4cc(O)ccc34)c12 | > 100 µM (inactive) | – | > 100 µM (inactive) | 81.1 µM (inactive) | 71 µM (inactive) | GI50 (T47D): > 100 µM (inactive); GI50 (PC-3): > 100 µM (inactive) |
